How the values were obtained:
[1] = target: T1, CD38 (Homo sapiens, UniProt P28907); test: inhibition of recombinant CD38 enzyme activity (Figure S5H); format: biochemical
T1 construct: recombinant CD38 (reCD38)
T1 sequence (P28907 1-300): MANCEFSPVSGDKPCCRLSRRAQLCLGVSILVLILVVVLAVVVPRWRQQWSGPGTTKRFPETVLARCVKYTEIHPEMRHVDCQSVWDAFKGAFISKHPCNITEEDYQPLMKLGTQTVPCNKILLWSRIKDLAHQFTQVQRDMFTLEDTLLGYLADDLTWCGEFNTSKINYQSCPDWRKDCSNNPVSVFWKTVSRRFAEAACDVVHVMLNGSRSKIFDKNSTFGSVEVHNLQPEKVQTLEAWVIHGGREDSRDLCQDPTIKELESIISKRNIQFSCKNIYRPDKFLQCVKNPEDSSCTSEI

[2] = target: T2, SARM1 (Homo sapiens, UniProt Q6SZW1); test: εNAD NADase assay and HPLC activity assays of immunopurified SARM1 (activation); dose-response in lysate; format: biochemical
T2 construct: SARM1-FLAG, immunoprecipitated; SARM1-dN (N-terminal mitochondria localization signal truncated)
T2 sequence (Q6SZW1 28-724): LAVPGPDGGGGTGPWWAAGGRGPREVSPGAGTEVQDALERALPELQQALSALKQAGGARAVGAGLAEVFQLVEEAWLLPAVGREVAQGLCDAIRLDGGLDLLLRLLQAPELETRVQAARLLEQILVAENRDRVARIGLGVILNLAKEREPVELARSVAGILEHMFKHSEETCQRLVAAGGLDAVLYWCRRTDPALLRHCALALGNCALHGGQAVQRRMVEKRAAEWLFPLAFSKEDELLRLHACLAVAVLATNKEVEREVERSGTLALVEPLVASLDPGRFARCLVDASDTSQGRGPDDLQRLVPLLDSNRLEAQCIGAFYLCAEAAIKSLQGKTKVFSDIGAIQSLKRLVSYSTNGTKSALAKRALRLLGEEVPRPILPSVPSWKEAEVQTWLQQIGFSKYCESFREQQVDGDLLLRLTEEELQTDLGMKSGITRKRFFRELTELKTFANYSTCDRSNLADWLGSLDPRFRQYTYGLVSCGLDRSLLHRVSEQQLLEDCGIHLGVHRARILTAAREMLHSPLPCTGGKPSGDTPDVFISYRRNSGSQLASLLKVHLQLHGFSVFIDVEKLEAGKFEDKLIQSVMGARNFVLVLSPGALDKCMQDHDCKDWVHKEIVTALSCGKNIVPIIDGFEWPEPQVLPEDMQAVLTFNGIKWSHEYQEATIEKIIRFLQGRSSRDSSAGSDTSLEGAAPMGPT

[3] = target: T1, CD38; test: inhibition of recombinant CD38 enzyme activity (Figure S5H); format: biochemical; remark: listed apart in the source
[4] = target: SARM1 (Homo sapiens, UniProt Q6SZW1); test: biochemical

| EC50 [2] [µM] | SMILES | inhibition of recombinant CD38 enzyme activity (Figure S5H) [1] | IC50 [3] [µM] | EC50 [4] [µM] |
| --- | --- | --- | --- | --- |
| ~50 | NC(=O)c1ccc[n+]([C@@H]2O[C@H](COP(=O)(O)O)[C@@H](O)[C@H]2O)c1 [NMN] | In contrast to SARM1, recombinant CD38 (reCD38) was inhibited by both NMN (Figure S5H) and CZ-48 | – | – |
| – | NC(=O)c1ccc[n+]([C@@H]2O[C@H](COP(O)(O)=S)[C@@H](O)[C@@H]2F)c1 [CZ-48] | – | ~10 | ~50 |

Source: article PMC6531917, “A Cell-Permeant Mimetic of NMN Activates SARM1 to Produce Cyclic ADP-Ribose and Induce Non-apoptotic Cell Death” (iScience, 2019)
